Results from patent US20230219978A1, “COMPOUND HAVING MACROCYCLIC STRUCTURE AND USE THEREOF” (SCINNOHUB PHARMACEUTICAL CO., LTD, priority 2020, published 2023).

Key:
Format in all cases: biochemical
[1] = biological target: T1, BTK (Homo sapiens, UniProt Q06187); assay: In vitro kinase activity assay (mobility shift assay), BTK; conditions: ATP 71 μM, reaction time 30 min
T1 construct: purchased Carna 08-180
Protocol: (§1) The IC50 (half inhibitory concentration) values of the compounds were used as an indicator to evaluate the inhibitory effect of the compound on RET wild-type, RET mutant, TRKa, SRC, BTK and/or mutated BTK kinase.
(§2) Using the method of Mobility shift assay, the compounds were tested for inhibitory activity against the following kinases: RET wild type, RET mutant, TRKa, SRC, BTK and/or mutated BTK. The initial concentration of the test compound was 1000 nM, 3-fold dilution, 10 concentrations, detected in a well for each concentration.
(§3) 20 mM hydroxyethylpiperazineethanesulfonic acid (Hepes) (pH 7.5) buffer, 10 mM MgCl2, 1 mM ethylene glycol bis(aminoethyl ether)tetraacetic acid (EGTA), 0.02% polyoxyethylene lauryl ether (Brij35), 0.02 mg/ml […] (BSA), 0.1 mM Na3VO4, 2 mM dithiothreitol (DTT), 1% DMSO.
(§4) The test compounds were dissolved in 100% dimethyl sulfoxide (DMSO) system, and prepared as 10 mM for use, and stored in a nitrogen cabinet away from light.
(§5) • (1) Preparing 1× kinase reaction buffer. • (2) Preparation of compound concentration gradient: the initial concentration of the compounds was 1000 nM, which was diluted as 100-fold final concentration of solution in 100% dimethyl sulfoxide (DMSO) in a 384-well plate. The compound was accurately 3-fold diluted with the kinase buffer solution, 10 concentrations in total, and the final concentration was 0.0508 nM. The 100-fold final concentration of solution in 100% dimethyl sulfoxide (DMSO) was obtained by dilution in 384 source plate. The liquid separator Echo 550 was used to transfer 250 nl of 100-fold final concentration of compound to the target 384 well plate. 250 nl of DMSO was added to the positive and negative control wells. • (3) 2.5-fold final concentration of kinase solution was prepared by the 1× kinase buffer. • (4) 10 4, of 2.5-fold final concentration of kinase solution was added to the compound well and the positive control well, respectively; 10 4, of 1× kinase buffer was added to the negative control well. • (5) After centrifuging at 1000 rpm for 30 second, the reaction plate was shaken and mixed, followed by incubation at room temperature for 10 min. • (6) a mixed solution of 25/15-fold final concentration of adenosine triphosphate (ATP) and kinase substrate was prepared by 1× kinase buffer. • (7) The mixed solution (15 μL) of 25/15-fold final concentration of adenosine triphosphate (ATP) and substrate was added to initiate the reaction. • (8) 384-well plate was centrifuged at 1000 rpm for 30 second, shaken and mixed well, and then incubated at room temperature for 30-240 min. • (9) After stopping the kinase reaction, the plate was centrifugated at 1000 rpm for 30 second, shaken and mixed well. • (10)The conversion rate was read with Caliper EZ Reader.
(§6) wherein Conversion%_sample is the conversion rate reading of the sample; Conversion%_min: the mean value of negative control wells, representing the conversion rate reading of wells without enzymes; Conversion%_max: the mean value of positive control wells, representing the conversion rate reading of wells without compound inhibition.
(§7) The log value of concentration was taken as the X axis, and the percentage inhibition rate was taken as the Y axis. Graphpad 6.0 analysis software was used to fit the dose-response curve, so as to obtain the IC50 value of each compound on the enzyme activity

[2] = biological target: T2, RET wt (Homo sapiens, UniProt P07949); assay: In vitro kinase activity assay (mobility shift assay), RET wild type; conditions: ATP 16 μM, reaction time 60 min
T2 construct: purchased Carna 08-159
Protocol: as §1, §2, §3, §4, §5, §6, §7

[3] = biological target: T3, BTK C481S (Homo sapiens, UniProt Q06187, C481S); assay: In vitro kinase activity assay (mobility shift assay), BTK C481S; conditions: ATP 90 μM, reaction time 30 min
T3 construct: purchased Carna 08-547
Protocol: as §1, §2, §3, §4, §5, §6, §7

[4] = biological target: T4, TRKa (Homo sapiens, UniProt P04629); assay: In vitro kinase activity assay (mobility shift assay), TRKa; conditions: ATP 47.8 μM, reaction time 30 min
T4 construct: purchased Carna 08-186
Protocol: as §1, §2, §3, §4, §5, §6, §7

[5] = biological target: T5, RET G810R (Homo sapiens, UniProt P07949, G810R); assay: In vitro kinase activity assay (mobility shift assay), RET G810R; conditions: ATP 201 μM, reaction time 4 h
T5 construct: purchased Proqinase 1724-0000-1
Protocol: as §1, §2, §3, §4, §5, §6, §7

T3 sequence (Q06187 whole entry C481S): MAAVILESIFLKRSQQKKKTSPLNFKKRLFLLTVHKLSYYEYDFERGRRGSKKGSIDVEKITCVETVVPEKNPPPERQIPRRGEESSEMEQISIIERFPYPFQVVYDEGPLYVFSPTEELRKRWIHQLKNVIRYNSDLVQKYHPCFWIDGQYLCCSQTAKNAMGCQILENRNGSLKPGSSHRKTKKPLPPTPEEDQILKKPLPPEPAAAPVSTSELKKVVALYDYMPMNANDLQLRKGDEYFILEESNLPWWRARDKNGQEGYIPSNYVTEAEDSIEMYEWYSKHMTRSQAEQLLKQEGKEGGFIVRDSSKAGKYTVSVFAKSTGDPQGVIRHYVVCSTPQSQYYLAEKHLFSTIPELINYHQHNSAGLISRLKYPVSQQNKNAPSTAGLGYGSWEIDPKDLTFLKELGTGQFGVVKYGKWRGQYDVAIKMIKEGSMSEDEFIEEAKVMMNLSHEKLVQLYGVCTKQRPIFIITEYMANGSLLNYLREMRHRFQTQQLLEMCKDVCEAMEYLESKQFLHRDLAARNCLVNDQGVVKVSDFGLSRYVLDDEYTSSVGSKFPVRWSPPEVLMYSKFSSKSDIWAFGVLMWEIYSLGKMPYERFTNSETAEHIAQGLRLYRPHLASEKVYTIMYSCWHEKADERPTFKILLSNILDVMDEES
T2 sequence (P07949 29-1114): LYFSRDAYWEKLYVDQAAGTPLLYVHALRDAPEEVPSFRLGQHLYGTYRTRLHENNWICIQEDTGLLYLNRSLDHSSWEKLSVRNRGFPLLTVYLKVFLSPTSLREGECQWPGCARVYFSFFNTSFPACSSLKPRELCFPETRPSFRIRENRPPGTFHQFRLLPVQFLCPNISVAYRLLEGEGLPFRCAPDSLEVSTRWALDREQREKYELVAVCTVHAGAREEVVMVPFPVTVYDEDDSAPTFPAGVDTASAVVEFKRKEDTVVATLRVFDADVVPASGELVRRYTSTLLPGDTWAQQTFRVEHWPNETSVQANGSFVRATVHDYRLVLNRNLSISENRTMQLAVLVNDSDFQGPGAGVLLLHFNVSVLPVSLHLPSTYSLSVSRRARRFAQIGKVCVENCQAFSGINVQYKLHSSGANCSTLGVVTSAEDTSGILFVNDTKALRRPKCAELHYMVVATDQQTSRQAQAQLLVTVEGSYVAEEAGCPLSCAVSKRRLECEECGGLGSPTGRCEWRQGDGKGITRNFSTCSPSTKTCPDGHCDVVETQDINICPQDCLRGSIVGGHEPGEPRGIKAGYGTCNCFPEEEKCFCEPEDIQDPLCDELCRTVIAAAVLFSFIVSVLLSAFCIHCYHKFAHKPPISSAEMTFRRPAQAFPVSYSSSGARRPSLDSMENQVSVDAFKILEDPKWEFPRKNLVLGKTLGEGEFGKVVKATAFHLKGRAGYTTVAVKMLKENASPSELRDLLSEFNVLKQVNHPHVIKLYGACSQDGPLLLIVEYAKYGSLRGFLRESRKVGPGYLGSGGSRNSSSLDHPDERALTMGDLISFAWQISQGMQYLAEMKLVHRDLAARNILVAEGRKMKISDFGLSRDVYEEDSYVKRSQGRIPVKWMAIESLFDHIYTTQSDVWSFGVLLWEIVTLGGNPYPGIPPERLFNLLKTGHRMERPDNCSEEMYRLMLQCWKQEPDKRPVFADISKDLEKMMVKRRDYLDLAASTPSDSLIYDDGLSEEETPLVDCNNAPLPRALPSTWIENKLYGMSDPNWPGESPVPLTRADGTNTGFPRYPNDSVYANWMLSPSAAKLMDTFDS
T4 sequence (P04629 33-796): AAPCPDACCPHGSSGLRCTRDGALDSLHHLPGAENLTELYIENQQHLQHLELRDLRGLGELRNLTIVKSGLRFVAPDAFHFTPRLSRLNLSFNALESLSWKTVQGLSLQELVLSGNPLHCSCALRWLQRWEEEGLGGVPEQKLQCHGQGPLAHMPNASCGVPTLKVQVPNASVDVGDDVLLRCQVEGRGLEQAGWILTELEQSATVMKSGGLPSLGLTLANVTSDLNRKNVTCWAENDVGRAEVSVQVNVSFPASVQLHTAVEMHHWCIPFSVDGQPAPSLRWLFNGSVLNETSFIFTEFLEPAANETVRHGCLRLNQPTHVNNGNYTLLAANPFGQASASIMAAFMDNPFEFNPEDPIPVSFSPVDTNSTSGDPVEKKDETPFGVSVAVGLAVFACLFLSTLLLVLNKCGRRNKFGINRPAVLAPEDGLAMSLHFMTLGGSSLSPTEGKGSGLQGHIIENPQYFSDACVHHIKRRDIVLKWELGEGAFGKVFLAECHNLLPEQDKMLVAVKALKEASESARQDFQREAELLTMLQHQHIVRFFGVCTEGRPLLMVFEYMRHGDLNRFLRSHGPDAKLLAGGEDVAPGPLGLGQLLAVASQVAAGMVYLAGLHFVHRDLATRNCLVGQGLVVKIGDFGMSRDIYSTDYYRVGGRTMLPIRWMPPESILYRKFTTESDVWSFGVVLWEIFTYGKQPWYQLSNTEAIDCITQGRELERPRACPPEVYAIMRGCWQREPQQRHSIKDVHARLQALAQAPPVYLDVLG
T1 sequence (Q06187 whole entry): as the sequence (Q06187 whole entry C481S) above, with S481C counted along it
T5 sequence (P07949 29-1114 G810R): as the sequence (P07949 29-1114) above, with G782R counted along it

IC50 [1] | IC50 [2] | IC50 [3] | IC50 [4] | IC50 [5] | Structure (SMILES)
3.5 nM | 2.1 nM | 6.6 nM |  |  | Nc1c(-c2ccccc2)c2nc3c(cnn13)C(=O)NCCOc1ncc(F)cc1CN2 [Example 65, (1^3E, 1^4E)-1^7-amino-4^5-fluoro-1^6-phenyl-5-oxa-2,8-diaza-1(5,3)-pyrazolino[1,5-a]pyrimidin-4(3,2)-pyridinacyclononaphan-9-one]
 | 36 nM |  | > 10000 nM |  | Cc1cccc(-c2cn3ncc4c3nc2NCc2cc(F)cnc2O[C@@H](C)CNC4=O)c1 [Compound 12, (S, 1^3E, 1^4E)-1^6-(3-methylphenyl)-4^5-fluoro-6-methyl-5-oxa-2,8-diaza-1(5,3)-pyrazolo[1,5-a]pyrimidina-4(3,2)-pyridinacyclononaphan-9-one]
 | 366 nM |  | > 10000 nM |  | C[C@H]1CNC(=O)c2cnn3cc(Nc4ccccc4)c(nc23)NCc2cc(F)cnc2O1 [Compound 25, (S, 1^3E, 1^4E)-4^5-fluoro-6-methyl-1^6-phenylamino-5-oxa-2,8-diaza-1(5,3)-pyrazolo[1,5-a]pyrimidina-4(3,2)-pyridinacyclononaphan-9-one]
1 nM | 1.6 nM | 1.9 nM |  |  | C[C@H]1CNC(=O)c2cnn3c(N)c(-c4ccc(F)cc4)c(nc23)NCc2cc(F)cnc2O1 [Compound 51, (S, 1^3E, 1^4E)-1^7-amino-1^6-(4-fluorophenyl)-4^5-fluoro-6-methyl-5-oxa-2,8-diaza-1(5,3)-pyrazolino[1,5-a]pyrimidin4(3,2)-pyridinacyclononaphan-9-one]
 | 10 nM |  | 1850 nM |  | C[C@H]1CNC(=O)c2cnn3cc(-c4cccc(F)c4)c(nc23)NCc2cc(F)cnc2O1 [Compound 7, (S, 1^3E, 1^4E)-1^6-(3-fluorophenyl)-4^5-fluoro-6-methyl-5-oxa-2,8-diaza-1(5,3)-pyrazolo[1,5-a]pyrimidina-4(3,2)-pyridinacyclononaphan-9-one]
 | 21 nM |  | 304 nM |  | C[C@H]1CNC(=O)c2cnn3cc(-c4c(F)cccc4F)c(nc23)NCc2cc(F)cnc2O1 [Compound 22, (S, 1^3E, 1^4E)-1^6-(2,6-difluorophenyl)-4^5-fluoro-6-methyl-5-oxa-2,8-diaza-1(5,3)-pyrazolo[1,5-a]pyrimidin-4(3,2)-pyridinacyclononaphan-9-one]
 | 13 nM |  | 1240 nM |  | C[C@H]1CNC(=O)c2cnn3cc(-c4ccc(F)cc4)c(nc23)NCc2cc(F)cnc2O1 [Compound 8, (S, 1^3E, 1^4E)-1^6-(4-fluorophenyl)-4^5-fluoro-6-methyl-5-oxa-2,8-diaza-1(5,3)-pyrazolo[1,5-a]pyrimidina-4(3,2)-pyridinacyclononaphan-9-one]
 | 127 nM |  | > 10000 nM |  | C[C@H]1CNC(=O)c2cnn3cc(-c4ccc(C(F)(F)F)cc4)c(nc23)NCc2cc(F)cnc2O1 [Compound 14, (S, 1^3E, 1^4E)-1^6-(4-trifluoromethylphenyl)-4^5-fluoro-6-methyl-5-oxa-2,8-diaza-1(5,3)-pyrazolo[1,5-a]pyrimidina-4(3,2)-pyridinacyclononaphan-9-one]
> 1000 nM | > 1000 nM | > 1000 nM |  | > 1000 nM | C[C@H]1CNC(=O)c2cnn3c(N)c(-c4ccc5[nH]ccc5c4)c(nc23)NCc2cc(F)cnc2O1 [Compound 53, (S, 1^3E, 1^4E)-1^7-amino-4^5-fluoro-1^6-(1H-indo1-5-yl)-6-methyl-5-oxo-2,8-diaza-1(5,3)-pyrazolo[1,5-a]pyrimidin-4(3,2)-pyridinacyclononaphan-9-one]
 | 237 nM |  | > 10000 nM |  | COc1cc(-c2cn3ncc4c3nc2NCc2cc(F)cnc2O[C@@H](C)CNC4=O)ccn1 [Compound 5, (S, 1^3E, 1^4E)-4^5-fluoro-1^6-(2-methoxypyridin-4-yl)-6-methyl-5-oxa-2,8-diaza-1(5,3)-pyrazolo[1,5-a]pyrimidin-4(3, 2)-pyridinacyclononaphan-9-one]
 | 543 nM |  | 1370 nM |  | C[C@H]1CNC(=O)c2cnn3cc(-c4ccccc4C(F)(F)F)c(nc23)NCc2cc(F)cnc2O1 [Compound 16, (S, 1^3E, 1^4E)-1^6-(2-trifluoromethylphenyl)-4^5-fluoro-6-methyl-5-oxa-2,8-diaza-1(5,3)-pyrazolo[1,5-a]pyrimidina-4(3,2)-pyridinacyclononaphan-9-one]
 | 5.3 nM |  | > 10000 nM |  | Cc1ccccc1-c1cn2ncc3c2nc1NCc1cc(F)cnc1O[C@@H](C)CNC3=O [Compound 13, (S, 1^3E, 1^4E)-1^6-(2-methylphenyl)-4^5-fluoro-6-methyl-5-oxa-2,8-diaza-1(5,3)-pyrazolo[1,5-a]pyrimidina-4(3,2)-pyridinacyclononaphan-9-one]
 | 448 nM |  | > 10000 nM |  | C[C@H]1CNC(=O)c2cnn3cc(C4CC4)c(nc23)NCc2cc(F)cnc2O1 [Compound 23, (S, 1^3E, 1^4E)-1^6-cyclopropyl-4^5-fluoro-6-methyl-5-oxa-2,8-diaza-1(5,3)-pyrazolo[1,5-a]pyrimidin-4(3,2)-pyridinacyclononaphan-9-one]
346 nM | 3.9 nM | 42.4 nM |  | 70 nM | CC(C)OC(=O)Nc1ccc(-c2cn3ncc4c3nc2NCc2cc(F)cnc2O[C@@H](C)CNC4=O)c(Cl)c1 [Compound 45, iso-propyl 3-chloro-4-((S, 1^3E, 1^4E)-4^5-fluoro-6-methyl-9-oxo-5-oxa-aza-1(5,3)-pyrazolo[1,5-a]pyrimidin-4(3,2)-pyridinacyclononaphan-1^6-yl)phenyl) carbamate]
 | 9 nM |  | > 10000 nM |  | C[C@H]1CNC(=O)c2cnn3cc(-c4ccccc4)c(nc23)N[C@H](C)c2cc(F)cnc2O1 [Compound 26, (1^3E, 1^4E, 3R, 6S)-4^5-fluoro-3,6-dimethyl-1^6-phenyl-5-oxa-2,8-diaza-1(5,3)-pyrazolo[1,5-a]pyrimidin-4(3,2)-pyridinacyclononaphan-9-one]
 | > 10000 nM |  | > 10000 nM |  | C[C@H]1CNC(=O)c2cnn3cc(-c4ccc(=O)n(C)c4)c(nc23)NCc2cc(F)cnc2O1 [Compound 20, (S, 1^3E, 1^4E)-4^5-fluoro-6-methyl-1^6-(1-methyl-6-oxo-1,6-dihydropyridin-3-yl)-5-oxa-2,8-diaza-1(5,3)-pyrazolo[1,5-a]pyrimidin-4(3,2)-pyridinacyclononaphan-9-one]
1.8 nM | 0.83 nM | 1.48 nM |  |  | C[C@H]1CNC(=O)c2cnn3c(N)c(-c4ccc(Cl)cc4)c(nc23)NCc2cc(F)cnc2O1 [Compound 50, (S, 1^3E, 1^4E)-1^7-amino-1^6-(4-chlorophenyl)-4^5-fluoro-6-methyl-5-oxa-2,8-diaza-1(5,3)-pyrazolino[1,5-a]pyrimidin-4(3,2)-pyridinacyclononaphan-9-one]
 | 5.9 nM |  | > 10000 nM |  | C[C@H]1CNC(=O)c2cnn3cc(-c4ccc(Cl)cc4Cl)c(nc23)NCc2cc(F)cnc2O1 [Compound 21, (S, 1^3E, 1^4E)-1^6-(2,4-dichlorophenyl)-4^5-fluoro-6-methyl-5-oxa-2,8-diaza-1(5,3)-pyrazolo[1,5-a]pyrimidin-4(3,2)-pyridinacyclononaphan-9-one]
